{
  "source": "paper doi:10.1101/2025.04.25.650653",
  "about": "“Hierarchical small molecule inhibition of MYST acetyltransferases” (bioRxiv, 2025)",
  "tested_on": "histone modifications in MCF-7 cells",
  "assay": "Histone modification analysis by bottom-up LC-MS/MS;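 for Ratio, H2AV 1 19 K11ac*: inhibitor concentrations in µM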;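 for Ratio, H2AX 4 11 K5acK9ac: inhibitor concentrations in µM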;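 for Ratio, H2AX 4 11 K9ac: inhibitor concentrations in µM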;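 for Ratio, H2AZ 1 19 K15ac: inhibitor concentrations in µM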;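 for Ratio, H2AZ 1 19 K4ac: inhibitor concentrations in µM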;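 for Ratio, H2AZ 1 19 K4acK11ac: inhibitor concentrations in µM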",
  "format": "cell-based",
  "description": "In this approach. […] Histones are then extracted from cell pellets and chemically derivatized with propionic anhydride, digested with trypsin, subjected to a second round of propionylation, and analyzed by LC-MS/MS. Measuring the relative intensity of modified versus unmodified forms of individual histone peptides enables simultaneous monitoring of multiple potential biomarkers of MYST inhibition. To minimize false positives, we focused on abundant and reproducible modifications (average stoichiometry of greater than 1% across triplicate samples, standard deviation less than or equal to the average measurement). To account for potential histone modification crosstalk, changes in both acetylated and methylated peptides were evaluated. 38 modified peptides passed this reproducible detection threshold including several established KAT biomarkers[41] including H3K9Ac (KAT2A/B), H3K18Ac (KAT3A/B), H3K14Ac (KAT7), H3K23Ac (KAT6A/B), H4K16Ac (KAT8), and H2A.ZK4/K7Ac (KAT5; Fig. 4B).\nHistone modification analysis\nMCF-7 cells were cultured at 37 °C under 5% CO2 in EMEM (Quality Biological, 112-016-101) with 0.01 mg/mL human recombinant insulin (Sigma Aldrich, 91077C), 2 mM L-glutamine (Quality Biological, 118- […]\nhuman recombinant insulin.\n1119, WM-3835). Following 24 h inhibitor treatment, cells were washed with ice-cold 1× PBS and scraped in 150 µL of Nuclear Isolation Buffer (NIB) containing 0.1% NP-40 for histone extraction using a modified protocol from the Garcia laboratory. 9 Briefly, cell suspensions were incubated on ice for 5 minutes, and […]\nnuclei were pelleted by centrifugation (600 rcf, 4°C, 5 min). Pelleted nuclei were washed twice with 150 μL of detergent-free NIB buffer, followed by centrifugation (600 rcf, 4°C, 5 min) to remove all detergent.\nNuclei were then resuspended in 400 μL of 0.4 N H₂SO₄ and rotated at 4°C overnight for acid extraction of histones. The following day, samples were centrifuged (11,000 rcf, 4°C, 10 min) and the histone-containing supernatant was transferred to a fresh tube. Trichloroacetic acid (100% TCA) was added to achieve a final concentration of 20% (v/v), tubes were inverted once to mix, and histone precipitation was performed on ice for at least 3 hours or overnight at 4°C. Precipitated histones were collected by centrifugation (11,000 rcf, 4°C, 10 min) and the supernatant carefully removed, leaving a visible film of histones on the tube wall or bottom. Histone pellets were subjected to sequential washes with 1 mL of ice-cold acidified acetone (0.1% 12 N HCl) followed by 1 mL of 100% ice-cold acetone, with centrifugation (11,000 rcf, 4°C, 5 min) after each wash. Samples were air-dried at room temperature, resuspended in 40 µL of ddH₂O, and protein […]\nanalysis, 1-2 µg of purified histones were loaded per lane and processed according to the general immunoblotting protocol described in General Materials and Methods.\nAnalysis of histone modifications by LC-MS/MS\nPreparation of histone samples for LC-MS/MS was performed analogously to the procedure for immunoblotting above, with the following modifications. MCF7 cells (4.2 × 106) were seeded in 15 cm dishes and treated with PF-9363 or vehicle. Experiments were performed in triplicate. Following treatment and PBS washing, cells were scraped and collected in 15 mL falcon tubes, pelleted (500 rcf, 4°C, 5 min), resuspended in 1 mL cold PBS, transferred to microcentrifuge tubes, and pelleted again before flash-freezing in liquid nitrogen for storage at -80°C. For extraction, cell pellets (~100 μL) were resuspended in NIB buffer at a 1:10 ratio, and cells were lysed with NIB buffer containing 0.2% NP-40 for 8 minutes on ice. Nuclei were pelleted at 1,000 rcf for 8 minutes and washed three times with 500 μL detergent-free NIB buffer. Histones were extracted using 800 μL of 0.2 M H₂SO₄, and after centrifugation (3,400 rcf, 4°C, 10",
  "key": {"[1]": {"details": "KAT marker KAT5, PF-9363 0.1, Replicates 1-3"}, "[2]": {"details": "KAT marker KAT5, PF-9363 1, Replicates 1-3"}, "[3]": {"details": "KAT marker KAT5, PF-9363 10, Replicates 1-3"}, "[4]": {"details": "KAT marker KAT5, PF-9363 30, Replicates 1-3"}, "[5]": {"details": "KAT marker KAT5, PF-9363 (0.1 mM)"}, "[6]": {"details": "KAT marker KAT5, PF-9363 (30 mM)"}, "[7]": {"details": "KAT marker KAT5, average ratio 0.1 v 30"}},
  "note": "Several values for one entry are separate records, joined by “and”; a condition that tells them apart may be missing. Equal values may be shown once.",
  "data": [
    {"smiles": "COc1cccc(OC)c1S(=O)(=O)Nc1noc2cc(Cn3cccn3)cc(OC)c12", "note": "[PF-9363]", "values": [
      {"measurement": "Ratio, H2AV_1_19 K11ac*", "setting": "[1]", "result": "0.007595 and 0.00642 and 0.01986"},
      {"measurement": "Ratio, H2AX_4_11 K5acK9ac", "setting": "[1]", "result": "0.05241 and 0.03954 and 0.03977"},
      {"measurement": "Ratio, H2AX_4_11 K9ac", "setting": "[1]", "result": "0.01011 and 0.01143 and 0.00727"},
      {"measurement": "Ratio, H2AZ_1_19 K4ac", "setting": "[1]", "result": "0.0934 and 0.07612 and 0.06178"},
      {"measurement": "Ratio, H2AZ_1_19 K4acK11ac", "setting": "[1]", "result": "0.01166 and 0.008639 and 0.01028"},
      {"measurement": "Ratio, H2AZ_1_19 K15ac", "setting": "[1]", "result": "0.004599 and 0.02439 and 0.01482"},
      {"measurement": "Ratio, H2AV_1_19 K11ac*", "setting": "[2]", "result": "0.004474 and 0.01793 and 0.01146"},
      {"measurement": "Ratio, H2AX_4_11 K5acK9ac", "setting": "[2]", "result": "0.01434 and 0.002712 and 0.0302"},
      {"measurement": "Ratio, H2AX_4_11 K9ac", "setting": "[2]", "result": "0.009767 and 0.01635 and 0.01121"},
      {"measurement": "Ratio, H2AZ_1_19 K4ac", "setting": "[2]", "result": "0.09212 and 0.06375 and 0.07053"},
      {"measurement": "Ratio, H2AZ_1_19 K4acK11ac", "setting": "[2]", "result": "0.007173 and 0.01149 and 0.00767"},
      {"measurement": "Ratio, H2AZ_1_19 K15ac", "setting": "[2]", "result": "0.003136 and 0.01439 and 0.00489"},
      {"measurement": "Ratio, H2AV_1_19 K11ac*", "setting": "[3]", "result": "0.01122 and 0 and 0.008954"},
      {"measurement": "Ratio, H2AX_4_11 K5acK9ac", "setting": "[3]", "result": "0.00945 and 0.08577 and 0.02854"},
      {"measurement": "Ratio, H2AX_4_11 K9ac", "setting": "[3]", "result": "0.01063 and 0.01009 and 0.01309"},
      {"measurement": "Ratio, H2AZ_1_19 K4ac", "setting": "[3]", "result": "0.08614 and 0 and 0.04884"},
      {"measurement": "Ratio, H2AZ_1_19 K4acK11ac", "setting": "[3]", "result": "0.008371 and 0 and 0.01009"},
      {"measurement": "Ratio, H2AZ_1_19 K15ac", "setting": "[3]", "result": "0.007824 and 0 and 0.01105"},
      {"measurement": "Ratio, H2AV_1_19 K11ac*", "setting": "[4]", "result": "0.005769 and 0.002136 and 0.002357"},
      {"measurement": "Ratio, H2AX_4_11 K5acK9ac", "setting": "[4]", "result": "0.04001 and 0.01893 and 0.03445"},
      {"measurement": "Ratio, H2AX_4_11 K9ac", "setting": "[4]", "result": "0.01286 and 0.00924 and 0.00685"},
      {"measurement": "Ratio, H2AZ_1_19 K4ac", "setting": "[4]", "result": "0 and 0.02795 and 0.04699"},
      {"measurement": "Ratio, H2AZ_1_19 K4acK11ac", "setting": "[4]", "result": "0 (2×) and 0.004492"},
      {"measurement": "Ratio, H2AZ_1_19 K15ac", "setting": "[4]", "result": "0 and 0.01504 and 0.003466"},
      {"measurement": "Average ratio, H2AV_1_19 K11ac*", "setting": "[5]", "result": 0.0113},
      {"measurement": "Average ratio, H2AX_4_11 K5acK9ac", "setting": "[5]", "result": 0.0439},
      {"measurement": "Average ratio, H2AX_4_11 K9ac", "setting": "[5]", "result": 0.0096},
      {"measurement": "Average ratio, H2AZ_1_19 K4ac", "setting": "[5]", "result": 0.0771},
      {"measurement": "Average ratio, H2AZ_1_19 K4acK11ac", "setting": "[5]", "result": 0.0102},
      {"measurement": "Average ratio, H2AZ_1_19 K15ac", "setting": "[5]", "result": 0.0146},
      {"measurement": "Average ratio, H2AV_1_19 K11ac*", "setting": "[6]", "result": 0.0034},
      {"measurement": "Average ratio, H2AX_4_11 K5acK9ac", "setting": "[6]", "result": 0.0311},
      {"measurement": "Average ratio, H2AX_4_11 K9ac", "setting": "[6]", "result": 0.0097},
      {"measurement": "Average ratio, H2AZ_1_19 K4ac", "setting": "[6]", "result": 0.0250},
      {"measurement": "Average ratio, H2AZ_1_19 K4acK11ac", "setting": "[6]", "result": 0.0015},
      {"measurement": "Average ratio, H2AZ_1_19 K15ac", "setting": "[6]", "result": 0.0062},
      {"measurement": "Fold-change 0.1 v 30, H2AV_1_19 K11ac*", "setting": "[7]", "result": 3.30},
      {"measurement": "Fold-change 0.1 v 30, H2AX_4_11 K5acK9ac", "setting": "[7]", "result": 1.41},
      {"measurement": "Fold-change 0.1 v 30, H2AX_4_11 K9ac", "setting": "[7]", "result": 1.00},
      {"measurement": "Fold-change 0.1 v 30, H2AZ_1_19 K4ac", "setting": "[7]", "result": 3.09},
      {"measurement": "Fold-change 0.1 v 30, H2AZ_1_19 K4acK11ac", "setting": "[7]", "result": 6.81},
      {"measurement": "Fold-change 0.1 v 30, H2AZ_1_19 K15ac", "setting": "[7]", "result": 2.37},
      {"measurement": "Fold-change 0.1 v 30, H3_18_26 unmod", "setting": "KQLATKAAR(H3_18_26), PF-9363 0.1 v 30", "result": 0.96},
      {"measurement": "Average ratio, H3_18_26 unmod", "setting": "KQLATKAAR(H3_18_26), PF-9363 (0.1 mM)", "result": 0.9434},
      {"measurement": "Average ratio, H3_18_26 unmod", "setting": "KQLATKAAR(H3_18_26), PF-9363 (30 mM)", "result": 0.9781},
      {"measurement": "Ratio, H3_73_83 K79me1", "setting": "PF-9363 0.1, Replicates 1-3", "result": "0.07799 and 0.09275 and 0.09546"},
      {"measurement": "Ratio, H3_73_83 K79me2", "setting": "PF-9363 0.1, Replicates 1-3", "result": "0.05292 and 0.1051 and 0.06234"},
      {"measurement": "Ratio, H3_73_83 unmod", "setting": "PF-9363 0.1, Replicates 1-3", "result": "0.8672 and 0.8006 and 0.8413"},
      {"measurement": "Ratio, H4_4_17 K12acK16ac", "setting": "PF-9363 0.1, Replicates 1-3", "result": "0.009379 and 0.008608 and 0.009722"},
      {"measurement": "Ratio, H4_4_17 unmod", "setting": "PF-9363 0.1, Replicates 1-3", "result": "0.6357 and 0.6297 and 0.6309"},
      {"measurement": "Ratio, H4_20_23 K20me1", "setting": "PF-9363 0.1, Replicates 1-3", "result": "0.02877 and 0.03606 and 0.02758"},
      {"measurement": "Ratio, H4_20_23 unmod", "setting": "PF-9363 0.1, Replicates 1-3", "result": "0.03039 and 0.02967 and 0.02773"},
      {"measurement": "Fold-change 0.1 v 30, H2A1_12_17 unmod (AKAKTR)", "setting": "PF-9363 0.1 v 30, peptide H2A1_12_17 unmod, MCF-7", "result": 0.98},
      {"measurement": "Fold-change 0.1 v 30, H2A3_12_17 K15me1 (AKAKSR)", "setting": "PF-9363 0.1 v 30, peptide H2A3_12_17 K15me1, MCF-7", "result": 0.96},
      {"measurement": "Ratio, H2A1_1_11 K5ac", "setting": "PF-9363 1, Replicates 1-3", "result": "0.9077 and 0.9494 and 0.9116"},
      {"measurement": "Ratio, H2A1_4_11 K5ac", "setting": "PF-9363 1, Replicates 1-3", "result": "0.06275 and 0.03204 and 0.05607"},
      {"measurement": "Ratio, H2A1_4_11 K9ac", "setting": "PF-9363 1, Replicates 1-3", "result": "0.0308 and 0.06179 and 0.03113"}
    ]}
  ]
}
